From US20120010206A1, “IMIDAZOLOPYRIDINE COMPOUNDS USEFUL FOR THE TREATMENT OF DEGENERATIVE AND INFLAMMATORY DISEASES” (priority 2006, published 2012)

Legend:
TAK1-TAB1 fusion protein = molecular target: T1, TAK1-TAB1 fusion protein (Homo sapiens, UniProt O43318); assay: In vitro TAK1 kinase assay (33P-ATP, casein substrate); type: biochemical; settings: semi-quantitative score, at least two independent experiments
T1 construct: purchased Upstate 14-600
T1 sequence (O43318 with tags, fused parts or gaps limits assumed): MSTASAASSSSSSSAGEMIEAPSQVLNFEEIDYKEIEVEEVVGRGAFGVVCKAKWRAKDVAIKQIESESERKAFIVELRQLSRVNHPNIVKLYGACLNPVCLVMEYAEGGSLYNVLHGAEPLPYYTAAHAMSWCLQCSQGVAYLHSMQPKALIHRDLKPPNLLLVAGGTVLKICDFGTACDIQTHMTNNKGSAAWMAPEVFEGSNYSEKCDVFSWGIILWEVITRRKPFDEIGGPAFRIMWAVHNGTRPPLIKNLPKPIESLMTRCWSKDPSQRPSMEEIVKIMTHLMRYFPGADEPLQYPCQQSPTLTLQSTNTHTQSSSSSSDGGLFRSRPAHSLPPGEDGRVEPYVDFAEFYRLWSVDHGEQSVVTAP
Outline: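 Radiometric assay with active TAK1-TAB1 fusion protein (0.5 mU), 0.1 mg/mL casein, ATP at 5 µM plus [33P]-γ-ATP, in 10 mM MOPS pH 7.0, 1 mM EDTA. Reactions ran 90 min at 30 °C, were stopped with phosphoric acid and filter-counted; percent inhibition from ≥2 experiments gave semi-quantitative potency scores.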

[1] = system: MMP1 expression from activated SFs (RASF); assay: MMP assay: MMP1 expression (ELISA) by TNF-α-triggered RASFs; type: cell-based; settings: RASF triggered with TNFα, MMP1 ELISA after 48 hrs, semi-quantitative score
Method: A 384-well format ELISA for measurement of MMP1 is developed. Various primary antibodies are tested, as well as various ELISA protocols. The following protocol is developed and validated to measure MMP1 levels in SF supernatant in 384 well plates: white Lumitrac 600 384 well plates (Greiner) are coated with 2 μg/mL anti-MMP1 antibody MAB1346 (Chemicon). The antibody is diluted in buffer 40 (1.21 g Tris base (Sigma), 0.58 g NaCl (Calbiochem) and 5 mL 10% NaN3 (Sigma) in 1 L milliQ water and adjusted to pH 8.5). After overnight incubation at 4° C., plates are washed with PBS (80 g NaCl, 2 g KCl (Sigma), 11.5 g Na2HPO4.7H2O and 2 g KH2PO4 in 10 L milliQ; pH 7.4) and blocked with 100 μL/well Casein buffer (2% Casein (VWR International) in PBS). Next day, casein buffer is removed from ELISA plates and replaced by 50 μL/well EC buffer (4 g casein, 2.13 g Na2HPO4 (Sigma), 2 g bovine albumin (Sigma), 0.69 g NaH2PO4.H2O (Sigma), 0.5 g CHAPS (Roche), 23.3 g NaCl, 4 mL 0.5 M EDTA pH 8 (Invitrogen), 5 mL 10% NaN3 in 1 L milliQ and adjusted to pH 7.0). 0.25 mM DTT (Sigma) is added to the thawed sample plates. After removal of the EC buffer, 20 μL of sample is transferred to the ELISA plates. After overnight incubation at 4° C. plates are washed twice with PBS and once with PBST (PBS with 0.05% Tween-20 (Sigma)) and incubated with 35 μL/well biotinylated anti-MMP1 antibody solution (R&D). This secondary antibody is diluted in buffer C (0.82 g NaH2PO4.H2O, 4.82 g Na2HPO4, 46.6 g NaCl, 20 g bovine albumin and 4 ml, 0.5M EDTA pH 8 in 2 L milliQ and adjusted to pH 7.0) at a concentration of 5 μg/mL. After 2 h of incubation at RT, plates are washed as described above and incubated with 50 μL/well streptavidin-HRP conjugate (Biosource). Streptavidin-HRP conjugate is diluted in buffer C at a concentration of 0.25 μg/mL. After 45 min, plates are washed as described above and incubated for 5 min with 50 μL/well BM Chem ELISA Substrate (Roche). Readout is performed on the Luminoscan Ascent Luminometer (Labsystems) with an integration time of 200 msec or with an Envision reader (Perkin Elmer).
SFs were acquired at passage 1 from a commercial supplier (Cell applications, Inc.). SFs are cultured in DMEM supplemented with 10% heat-inactivated FBS, 1× penicillin/streptomycin (Invitrogen) at 37° C., 10% CO2 until passage 6. Aliquots of the cells are frozen and cryopreserved in liquid nitrogen. Starting from a cryopreserved aliquot, cells are further expanded by sub-culturing cells at 1/3 ratio every week. Cells between passage 10 and 12 are routinely used in compound testing according to the following protocol.
Starting from the compound master stocks (all at 10 mM concentration in 100% DMSO) a 3-fold serial dilution is made in 96-well plates in 100% DMSO. Then, plates are further diluted 45-fold in M199 medium supplemented with 1% heat-inactivated FBS to obtain a intermediate work stock.
At day 1, RASFs are seeded in 96 well plates (flat bottom, tissue culture treated, Greiner) at a density of 3000 cells/well in complete synovial growth medium (Cell Applications). Day 5, the medium is completely removed from the cells, and replaced by 81 μL of M199 medium supplemented with 1% heat-inactivated FBS followed by addition of 10 μL compound out of the intermediate work stock. After an incubation period of 90 minutes, which allows the compounds to equilibrate and enter the cells, cells are stimulated with either TNF-α or ‘complex trigger’. TNF-α trigger is added in a volume of […] to obtain final concentration of 10 ng/mL. For that, TNF-α stock (PeproTech) at 10 μg/mL was diluted to 100 ng/mL TNF-α in M199 medium supplemented with 1% FBS. ‘Complex trigger’ mix is added in a volume of 20 μL to obtain a final concentration of 12.5%. For that, ‘complex trigger’ mix, is diluted to 80% with M199 medium supplemented with 1% FBS. […]

| IC50 (TAK1-TAB1 fusion protein) | EC50 [1] | Structure (SMILES) |
| --- | --- | --- |
| 1 to 3 µM | 1 to 3 µM | Cc1cc(CNC(=O)c2ccc(Nc3ccc(-c4ccc5c(c4)CNC5=O)n4ccnc34)cc2)no1 [Compound 37, N-((5-methylisoxazol-3-yl)methyl)-4-(5-(1-oxoisoindolin-5-yl)imidazo[1,2-a]pyridin-8-ylamino)benzamide] |
| 0.101 to 1 µM | > 3 µM | COCCN(C)C(=O)c1ccc(Nc2ccc(-c3ccc4c(c3)CNC4=O)n3ccnc23)cc1 [Compound 38, N-(2-methoxyethyl)-N-methyl-4-(5-(1-oxoisoindolin-5-yl)imidazo[1,2-a]pyridin-8-ylamino)benzamide] |
| < 0.1 µM | > 3 µM | CN(C)C1CCN(C(=O)c2ccc(Nc3ccc(-c4ccc5c(c4)CNC5=O)n4ccnc34)cc2)C1 (centres unmarked) [Compound 39, 5-(8-(4-(3-(dimethylamino)pyrrolidine-1-carbonyl)phenyl-amino)imidazo[1,2-a]pyridin-5-yl)isoindolin-1-one] |
| 0.101 to 1 µM | > 3 µM | CCOCCN1CCN(C(=O)c2ccc(Nc3ccc(-c4ccc5c(c4)CNC5=O)n4ccnc34)cc2)CC1 [Compound 40, 5-(8-(4-(4-(2-ethoxyethyl)piper-azine-1-carbonyl)phenyl-amino)imidazo[1,2-a]pyridin-5-yl)isoindolin-1-one] |
| 0.101 to 1 µM | > 3 µM | CNC(=O)C1CCN(C(=O)c2ccc(Nc3ccc(-c4ccc5c(c4)CNC5=O)n4ccnc34)cc2)CC1 [Compound 41, N-methyl-1-(4-(5-(1-oxoisoindolin-5-yl)imidazo[1,2-a]pyridin-8-ylamino)benzoyl) piperidine-4-carboxamide] |
| 0.101 to 1 µM | > 3 µM | CC(=O)N(C)C1CCN(C(=O)c2ccc(Nc3ccc(-c4ccc5c(c4)CNC5=O)n4ccnc34)cc2)C1 (centres unmarked) [Compound 42, N-methyl-N-(1-(4-(5-(1-oxoisoindolin-5-yl)imidazo[1,2-a]pyridin-8-ylamino)benzoyl)pyrrolidin-3-yl)acetamide] |
| 0.101 to 1 µM | > 3 µM | O=C(NCCN1CCOCC1)c1ccc(Nc2ccc(-c3ccc4c(c3)CNC4=O)n3ccnc23)cc1 [Compound 43, N-(2-morpholinoethyl)-4-(5-(1-oxoisoindolin-5-yl)imidazo[1,2-a]pyridin-8-ylamino)benzamide] |
| < 0.1 µM | > 3 µM | O=C1NCc2cc(-c3ccc(Nc4ccc(C(=O)N5CCC(N6CCCCC6)CC5)cc4)c4nccn34)ccc21 [Compound 46, 5-(8-(4-(1,4′-bipiperidine-1′-carbonyl)phenylamino)imidazo[1,2-a]pyridin-5-yl)isoindolin-1-one] |
| < 0.1 µM | > 3 µM | CCN(C)CCN(CC)C(=O)c1ccc(Nc2ccc(-c3ccc4c(c3)CNC4=O)n3ccnc23)cc1 [Compound 47, N-ethyl-N-(2-(ethyl(methyl)amino)ethyl)-4-(5-(1-oxoisoindolin-5-yl)imidazo[1,2-a]pyridin-8-ylamino)benzamide] |
| < 0.1 µM | > 3 µM | CC(C)N1CCN(C(=O)c2ccc(Nc3ccc(-c4ccc5c(c4)CNC5=O)n4ccnc34)cc2)CC1 [Compound 48, 5-(8-(4-(4-isopropylpiperazine-1-carbonyl)phenylamino)imidazo [1,2-a]pyridin-5-yl)isoindolin-1-one] |
| < 0.1 µM | > 3 µM | CCN1CCC[C@H]1CNC(=O)c1ccc(Nc2ccc(-c3ccc4c(c3)CNC4=O)n3ccnc23)cc1 [Compound 49, (S)-N-((1-ethylpyrrolidin-2-yl)methyl)-4-(5-(1-oxoisoindolin-5-yl)imidazo[1,2-a]pyridin-8-ylamino)benzamide] |
| 0.101 to 1 µM | > 3 µM | CN(C)CCCNC(=O)c1ccc(Nc2ccc(-c3ccc4c(c3)CNC4=O)n3ccnc23)cc1 [Compound 50, -(3-(dimethylamino)propyl)-4-(5-(1-oxoisoindolin-5-yl)imidazo[1,2-a]pyridin-8-ylamino)benzamide] |
| 0.101 to 1 µM | > 3 µM | O=C(NCCCN1CCCC1)c1ccc(Nc2ccc(-c3ccc4c(c3)CNC4=O)n3ccnc23)cc1 [Compound 51, 4-(5-(1-oxoisoindolin-5-yl)imidazo[1,2-a]pyridin-8-ylamino)-N-(3-(pyrrolidin-1-yl)propyl)benzamide] |
| 0.101 to 1 µM | > 3 µM | CCC(C)N1CCN(C(=O)c2ccc(Nc3ccc(-c4ccc5c(c4)CNC5=O)n4ccnc34)cc2)CC1 (centres unmarked) [Compound 52, 5-(8-(4-(4-sec-butylpiperazine-1-carbonyl)phenylamino)imidazo [1,2-a]pyridin-5-yl)isoindolin-1-one] |
| < 0.1 µM | > 3 µM | CCN1CCN(C(=O)c2ccc(Nc3ccc(-c4ccc5c(c4)CNC5=O)n4ccnc34)cc2)CC1 [Compound 53, 5-(8-(4-(4-ethylpiperazine-1-carbonyl)phenylamino)imidazo [1,2-a]pyridin-5-yl)isoindolin-1-one] |
| 0.101 to 1 µM | > 3 µM | CN1CCN(c2ccc(Nc3ccc(-c4ccc(C(N)=O)cc4)n4ccnc34)cc2F)CC1 [Compound 63] |
| 0.101 to 1 µM | 1 to 3 µM | CS(=O)(=O)c1ccc(Nc2ccc(-c3cc[nH]c(=O)c3)n3ccnc23)cc1 [Compound 64] |
| 0.101 to 1 µM | 0.101 to 1 µM | O=c1cc(-c2ccc(Nc3ccc(N4CCOCC4)c(F)c3)c3nccn23)cc[nH]1 [Compound 65] |
| 1 to 3 µM | 0.101 to 1 µM | NC(=O)c1ccc(-c2ccc(Nc3ccc(N4CCOCC4)c(F)c3)c3nccn23)cc1 [Compound 66] |
| > 3 µM | 0.101 to 1 µM | NC(=O)c1ccc(-c2ccc(Nc3ccc(N4CCOCC4)c(F)c3)c3nccn23)cc1F [Compound 67] |
| 0.101 to 1 µM | 0.101 to 1 µM | O=c1cc(-c2ccc(Nc3ccc(N4CCOCC4)cc3)c3nccn23)cc[nH]1 [Compound 68] |
| 0.101 to 1 µM | 1 to 3 µM | Fc1cc(Nc2ccc(-c3cn[nH]c3)n3ccnc23)ccc1N1CCOCC1 [Compound 69] |
| > 3 µM | > 3 µM | CC(=O)Nc1ccc(-c2ccc(Nc3ccc(N4CCN(C(C)C)CC4)cc3)c3nccn23)cc1 [Compound 70] |
| 0.101 to 1 µM | 1 to 3 µM | CS(=O)(=O)c1ccc(Nc2ccc(-c3cn[nH]c3)n3ccnc23)cc1 [Compound 71] |
| 1 to 3 µM | 1 to 3 µM | CS(=O)(=O)c1ccc(Nc2ccc(-c3ccc(C(N)=O)c(F)c3)n3ccnc23)cc1 [Compound 72] |
